US4207311A, “Peptides having analgesic and thermoregulative properties” (The Salk Institute for Biological Studies, priority 1977, dated 1980)
Square brackets hold non-standard residues; d marks the D form. Peptide text beside a SMILES is read from it. pGlu = O=C1CC[C@@H](C(=O)O)N1

System: cold exposed rat
Assay: hypothermia in cold exposed rats after intracisternal injection (rectal/core temperature)
Assay type: in vivo
Method: Male Sprague-Dawley-CV rats weighing 180-200 grams were housed in temperature and humidity controlled quarters. The rats were fed a standard rat food ration and tap water ad libitum. After being anesthetized with ether, peptides were injected into the cisterna magna of each rat. Ten microliters of a peptide solution containing 1-1000 nanograms of the peptide were injected. Immediately following the injections, the animals were transferred to a cold room maintained at 4° C. Rectal temperatures were recorded with a thermo probe at 30 minute intervals following injection. All experiments were carried out in a randomized block design. Following analyses of variance, differences between the effect of the various peptides were determined. The peptides were dissolved in a buffer composed of 126 mM, NaCl, 6 mM KCl, 1 mM NaH2 PO4, 0.88 mM MgSo4, 1.45 mM CaCl2, and 25 mM HEPES pH 7.2.
Other peptides isolated from anuran skin, i.e., litorin, ranatensin and alytesin, are approximately 1%, 10% and 100% respectively as potent as the peptide described above to lower body temperature of the cold exposed rat.

CSCC[C@H](NC(=O)[C@H](Cc1ccccc1)NC(=O)[C@H](Cc1c[nH]cn1)NC(=O)CNC(=O)[C@@H](NC(=O)[C@H](C)NC(=O)[C@H](Cc1c[nH]c2ccccc12)NC(=O)[C@H](CCC(N)=O)NC(=O)[C@@H]1CCCN1C(=O)[C@@H](NC(=O)[C@@H]1CCC(=O)N1)C(C)C)C(C)C)C(N)=O [ranatensin] ([pGlu]VPQWAVGHFM-NH2)
potency relative to the peptide of Example I to lower body temperature (cold exposed rat): ~10%

CSCC[C@H](NC(=O)[C@H](CC(C)C)NC(=O)[C@H](Cc1cnc[nH]1)NC(=O)CNC(=O)[C@@H](NC(=O)[C@H](C)NC(=O)[C@H](Cc1c[nH]c2ccccc12)NC(=O)[C@H](CCC(N)=O)NC(=O)[C@H](CC(N)=O)NC(=O)CNC(=O)[C@H](CC(C)C)NC(=O)[C@H](CCCN=C(N)N)NC(=O)[C@H](CCC(N)=O)NC(=O)[C@@H]1CCC(=O)N1)C(C)C)C(N)=O [the peptide of the invention]
potency relative to Neurotensin to produce hypothermia (cold exposed rat (4° C.), graded doses, core temperature 60 minutes following administration): at least 10^4 times
